# In publication PMC11597089, “Kratom Alkaloids: A Blood–Brain Barrier Specific Membrane Permeability Assay-Guided Isolation and Cyclodextrin Complexation Study” (Molecules, 2024):
# Test: ACE complex stability, α-CD
# Assay type: physicochemical
# Settings: 30 mM phosphate buffer pH 7.4, 25 °C, 15 kV, 215 nm
# Description: (§1) To investigate the CD complexation behavior of the four kratom alkaloids, we aimed to develop an ACE method for a systematic comparative study. […] To ensure sufficient buffer capacity and to avoid excessive current and Joule heat generation, the buffer concentration was set to 30 mM, and the applied voltage was 15 kV.
# (§2) The ACE experiments were performed by using Agilent 7100 and HP^3DCE instruments (Agilent Technologies, Waldbronn, Germany). Untreated fused silica capillaries (total length of 48.5 cm, effective length of 40 cm, inner diameter of 50 μm) were purchased from Agilent Technologies. The new capillaries were conditioned with a 1 M NaOH wash for 1 h, followed by a 30 min wash each with 0.1 M NaOH and purified water. Prior to all runs, the capillary was preconditioned by rinsing with background electrolyte for 3 min. During the measurements, 30 mM phosphate buffer at pH 7.4 (30 mM Na2HPO4-NaOH) was used. The background electrolyte contained CDs at various concentrations. Stock solutions of the studied kratom alkaloids (mitragynine, paynantheine, speciogynine, speciociliatine) were prepared separately in methanol (1 mg/mL), and, right before the measurements, appropriate dilutions with purified water were used to prepare the sample solutions, applying 0.1% DMSO as the electroosmotic flow (EOF) marker. The samples were injected hydrodynamically at 40 mbar for 3 s. The positive polarity voltage was set to 15 kV, and the capillary was set to 25 °C. The electropherograms were recorded at four wavelengths (200 nm, 210 nm, 215 nm, and 220 nm), and the data were evaluated at 215 nm. In each case, three parallel measurements were performed. The measurements were evaluated using Origin and CEval software (v. 0.6i3).
# (§3) In order to determine the complex stability constants that characterized the strength of the complexes, the first step was to determine the effective mobility of the analyte at specific CD concentrations. Triangular peaks caused by electromigration dispersion are often observed in ACE measurements.
# (§4) Assuming a 1:1 complexation ratio and that the equilibrium CD concentration is almost equal to the total CD concentration, a relationship between the effective mobility relative to the EOF and the complex stability constant can be described by Function (4) (4) μeff=μA+μACDKstabCD/1+KstabCD where µeff is the effective mobility of the analyte, µA and µACD are the free and complexed analyte mobilities, [CD] is the concentration of the selector, and Kstab is the complex stability constant.
# (§5) In order to calculate the exact, apparent, averaged complex stability constant values, viscosity correction and ionic strength correction were used.
row,Structure (SMILES),complex stability constant (Kstab) with α-CD [M⁻¹]
1,"C=C[C@H]1CN2CCc3c([nH]c4cccc(OC)c34)[C@@H]2C[C@@H]1/C(=C\OC)C(=O)OC [Paynantheine, paynantheine]",20 ± 2

# Test: ACE complex stability, β-CD
# Assay type: physicochemical
# Settings: 30 mM phosphate buffer pH 7.4, 25 °C, 15 kV, 215 nm
# Description: as §1, §2, §3, §4, §5
row,Structure (SMILES),complex stability constant (Kstab) with β-CD [M⁻¹]
1,"C=C[C@H]1CN2CCc3c([nH]c4cccc(OC)c34)[C@@H]2C[C@@H]1/C(=C\OC)C(=O)OC [Paynantheine, paynantheine]",145 ± 15

# Test: ACE complex stability, γ-CD
# Assay type: physicochemical
# Settings: 30 mM phosphate buffer pH 7.4, 25 °C, 15 kV, 215 nm
# Description: as §1, §2, §3, §4, §5
row,Structure (SMILES),complex stability constant (Kstab) with γ-CD [M⁻¹]
1,"C=C[C@H]1CN2CCc3c([nH]c4cccc(OC)c34)[C@@H]2C[C@@H]1/C(=C\OC)C(=O)OC [Paynantheine, paynantheine]",140 ± 5

# Test: ACE complex stability, RAME-β-CD
# Assay type: physicochemical
# Settings: randomly methylated-β-CD DS~12, 30 mM phosphate buffer pH 7.4, 25 °C
# Description: as §1, §2, §3, §4, §5
row,Structure (SMILES),complex stability constant (Kstab) with RAME-β-CD [M⁻¹]
1,"C=C[C@H]1CN2CCc3c([nH]c4cccc(OC)c34)[C@@H]2C[C@@H]1/C(=C\OC)C(=O)OC [Paynantheine, paynantheine]",170 ± 30

# Test: ACE complex stability, CM-α-CD
# Assay type: physicochemical
# Settings: carboxymethylated-α-CD DS~3.5, 30 mM phosphate buffer pH 7.4, 25 °C
# Description: as §1, §2
# (§6) In order to determine the complex stability constants that characterized the strength of the complexes, the first step was to determine the effective mobility of the analyte at specific CD concentrations. Triangular peaks caused by electromigration dispersion are often observed in ACE measurements. […]
row,Structure (SMILES),complex stability constant (Kstab) with CM-α-CD [M⁻¹]
1,"C=C[C@H]1CN2CCc3c([nH]c4cccc(OC)c34)[C@@H]2C[C@@H]1/C(=C\OC)C(=O)OC [Paynantheine, paynantheine]",175 ± 12

# Test: ACE complex stability, CM-β-CD
# Assay type: physicochemical
# Settings: carboxymethylated-β-CD DS~3, 30 mM phosphate buffer pH 7.4, 25 °C
# Description: as §1, §2, §3, §4, §5
row,Structure (SMILES),complex stability constant (Kstab) with CM-β-CD [M⁻¹]
1,"C=C[C@H]1CN2CCc3c([nH]c4cccc(OC)c34)[C@@H]2C[C@@H]1/C(=C\OC)C(=O)OC [Paynantheine, paynantheine]",185 ± 15

# Test: ACE complex stability, CM-γ-CD
# Assay type: physicochemical
# Settings: carboxymethylated-γ-CD DS~4, 30 mM phosphate buffer pH 7.4, 25 °C
# Description: as §1, §2, §3, §4, §5
row,Structure (SMILES),complex stability constant (Kstab) with CM-γ-CD [M⁻¹]
1,"C=C[C@H]1CN2CCc3c([nH]c4cccc(OC)c34)[C@@H]2C[C@@H]1/C(=C\OC)C(=O)OC [Paynantheine, paynantheine]",180 ± 20

# Test: ACE complex stability, Sualfadex
# Assay type: physicochemical
# Settings: hexakis-(6-deoxy-6-(2-carboxyethyl)thio)-α-CD, 30 mM phosphate buffer pH 7.4, 25 °C
# Description: as §1, §2, §3, §4, §5
row,Structure (SMILES),complex stability constant (Kstab) with Sualfadex [M⁻¹]
1,"C=C[C@H]1CN2CCc3c([nH]c4cccc(OC)c34)[C@@H]2C[C@@H]1/C(=C\OC)C(=O)OC [Paynantheine, paynantheine]",80 ± 15

# Test: ACE complex stability, Succ-β-CD
# Assay type: physicochemical
# Settings: succinyl-β-CD DS~6, 30 mM phosphate buffer pH 7.4, 25 °C
# Description: as §1, §2, §3, §4, §5
row,Structure (SMILES),complex stability constant (Kstab) with Succ-β-CD [M⁻¹]
1,"C=C[C@H]1CN2CCc3c([nH]c4cccc(OC)c34)[C@@H]2C[C@@H]1/C(=C\OC)C(=O)OC [Paynantheine, paynantheine]",360 ± 30

# Test: ACE complex stability, SBE-β-CD DS~4
# Assay type: physicochemical
# Settings: sulfobutyl-ether-β-CD DS~4, 30 mM phosphate buffer pH 7.4, 25 °C
# Description: as §1, §2, §3, §4, §5
row,Structure (SMILES),complex stability constant (Kstab) with SBE-β-CD DS~4 [M⁻¹]
1,"C=C[C@H]1CN2CCc3c([nH]c4cccc(OC)c34)[C@@H]2C[C@@H]1/C(=C\OC)C(=O)OC [Paynantheine, paynantheine]",830 ± 50

# Test: ACE complex stability, SP-β-CD
# Assay type: physicochemical
# Settings: sulfopropylated-β-CD DS~2, 30 mM phosphate buffer pH 7.4, 25 °C
# Description: as §1
# The ACE experiments were performed by using Agilent 7100 and HP^3DCE instruments (Agilent Technologies, Waldbronn, Germany). Untreated fused silica capillaries (total length of 48.5 cm, effective length of 40 cm, inner diameter of 50 μm) were purchased from Agilent Technologies. The new capillaries were conditioned with a 1 M NaOH wash for 1 h, followed by a 30 min wash each with 0.1 M NaOH and purified water. Prior to all runs, the capillary was preconditioned by rinsing with background electrolyte for 3 min. During the measurements, 30 mM phosphate buffer at pH 7.4 (30 mM Na2HPO4-NaOH) was used. The background electrolyte contained CDs at various concentrations. […] The electropherograms were recorded at four wavelengths (200 nm, 210 nm, 215 nm, and 220 nm), and the data were evaluated at 215 nm. […] The measurements were evaluated using Origin and CEval software (v. 0.6i3). […]
row,Structure (SMILES),complex stability constant (Kstab) with SP-β-CD [M⁻¹]
1,"C=C[C@H]1CN2CCc3c([nH]c4cccc(OC)c34)[C@@H]2C[C@@H]1/C(=C\OC)C(=O)OC [Paynantheine, paynantheine]",335 ± 35

# Test: ACE complex stability, HS-β-CD
# Assay type: physicochemical
# Settings: heptakis-(6-O-sulfo)-β-CD, 30 mM phosphate buffer pH 7.4, 25 °C
# Description: as §1, §2, §6
row,Structure (SMILES),complex stability constant (Kstab) with HS-β-CD [M⁻¹]
1,"C=C[C@H]1CN2CCc3c([nH]c4cccc(OC)c34)[C@@H]2C[C@@H]1/C(=C\OC)C(=O)OC [Paynantheine, paynantheine]",575 ± 35

# Test: ACE complex stability, HxDMS-α-CD
# Assay type: physicochemical
# Settings: hexakis-(2,3-O-dimethyl, 6-O-sulfo)-α-CD, 30 mM phosphate buffer pH 7.4, 25 °C
# Description: as §1, §2, §3, §4, §5
row,Structure (SMILES),complex stability constant (Kstab) with HxDMS-α-CD [M⁻¹]
1,"C=C[C@H]1CN2CCc3c([nH]c4cccc(OC)c34)[C@@H]2C[C@@H]1/C(=C\OC)C(=O)OC [Paynantheine, paynantheine]",110 ± 8

# Test: ACE complex stability, HDMS-β-CD
# Assay type: physicochemical
# Settings: heptakis-(2,3-O-dimethyl, 6-O-sulfo)-β-CD, 30 mM phosphate buffer pH 7.4, 25 °C
# Description: as §1, §2, §3, §4, §5
row,Structure (SMILES),complex stability constant (Kstab) with HDMS-β-CD [M⁻¹]
1,"C=C[C@H]1CN2CCc3c([nH]c4cccc(OC)c34)[C@@H]2C[C@@H]1/C(=C\OC)C(=O)OC [Paynantheine, paynantheine]",135 ± 14

# Test: ACE complex stability, HMDiSu-β-CD
# Assay type: physicochemical
# Settings: heptakis-(2-O-methyl, 3,6-O-disulfo)-β-CD, 30 mM phosphate buffer pH 7.4, 25 °C
# Description: as §1, §2, §3, §4, §5
row,Structure (SMILES),complex stability constant (Kstab) with HMDiSu-β-CD [M⁻¹]
1,"C=C[C@H]1CN2CCc3c([nH]c4cccc(OC)c34)[C@@H]2C[C@@H]1/C(=C\OC)C(=O)OC [Paynantheine, paynantheine]",350 ± 10

# Test: ACE complex stability, MA-β-CD
# Assay type: physicochemical
# Settings: mono-(6-N-amino-6-deoxy)-β-CD, positively charged, 30 mM phosphate buffer pH 7.4, 25 °C
# Description: as §1, §2, §3, §4, §5
row,Structure (SMILES),complex stability constant (Kstab) with MA-β-CD [M⁻¹]
1,"C=C[C@H]1CN2CCc3c([nH]c4cccc(OC)c34)[C@@H]2C[C@@H]1/C(=C\OC)C(=O)OC [Paynantheine, paynantheine]",< 10

# Test: ACE complex stability, HPA-β-CD
# Assay type: physicochemical
# Settings: mono-6^A-(3-hydroxy)propylamino-β-CD, positively charged, 30 mM phosphate buffer pH 7.4, 25 °C
# Description: as §1, §2, §3, §4, §5
row,Structure (SMILES),complex stability constant (Kstab) with HPA-β-CD [M⁻¹]
1,"C=C[C@H]1CN2CCc3c([nH]c4cccc(OC)c34)[C@@H]2C[C@@H]1/C(=C\OC)C(=O)OC [Paynantheine, paynantheine]",< 10

# Test: ACE complex stability, PYR-β-CD
# Assay type: physicochemical
# Settings: 6-monodeoxy-6-pyrrolidine-β-CD, positively charged, 30 mM phosphate buffer pH 7.4, 25 °C
# Description: as §1, §2, §3, §4, §5
row,Structure (SMILES),complex stability constant (Kstab) with PYR-β-CD [M⁻¹]
1,"C=C[C@H]1CN2CCc3c([nH]c4cccc(OC)c34)[C@@H]2C[C@@H]1/C(=C\OC)C(=O)OC [Paynantheine, paynantheine]",< 10

# Test: ACE complex stability, PIP-β-CD
# Assay type: physicochemical
# Settings: 6-monodeoxy-6-piperidine-β-CD, positively charged, 30 mM phosphate buffer pH 7.4, 25 °C
# Description: as §1, §2, §3, §4, §5
row,Structure (SMILES),complex stability constant (Kstab) with PIP-β-CD [M⁻¹]
1,"C=C[C@H]1CN2CCc3c([nH]c4cccc(OC)c34)[C@@H]2C[C@@H]1/C(=C\OC)C(=O)OC [Paynantheine, paynantheine]",< 10

# Test: ACE complex stability, MePYR-β-CD
# Assay type: physicochemical
# Settings: mono-6^A-(N-methyl-pyrrolidine)-β-CD, positively charged, 30 mM phosphate buffer pH 7.4, 25 °C
# Description: as §1, §2, §3, §4, §5
row,Structure (SMILES),complex stability constant (Kstab) with MePYR-β-CD [M⁻¹]
1,"C=C[C@H]1CN2CCc3c([nH]c4cccc(OC)c34)[C@@H]2C[C@@H]1/C(=C\OC)C(=O)OC [Paynantheine, paynantheine]",< 10

# Test: ACE complex stability, MePIP-β-CD
# Assay type: physicochemical
# Settings: mono-6^A-(N-methyl-piperidine)-β-CD, positively charged, 30 mM phosphate buffer pH 7.4, 25 °C
# Description: as §1, §2, §3, §4, §5
row,Structure (SMILES),complex stability constant (Kstab) with MePIP-β-CD [M⁻¹]
1,"C=C[C@H]1CN2CCc3c([nH]c4cccc(OC)c34)[C@@H]2C[C@@H]1/C(=C\OC)C(=O)OC [Paynantheine, paynantheine]",< 10
